Experiments:
[1] = Inhibition of c-Met in human MKN45 cells assessed as reduction in cell proliferation after 72 hrs by SRB or MTT assay
[2] = Inhibition of c-Met in human EBC-1 cells assessed as reduction in cell proliferation after 72 hrs by SRB or MTT assay
[3] = Inhibition of TPR-MET in mouse BAF3 cells assessed as reduction in cell proliferation after 72 hrs by SRB or MTT assay

Row | IC50 [1] | IC50 [2] | IC50 [3] | Structure (SMILES)
1 | 0.46 nM | 0.85 nM | – | Fc1ccc(-c2cnc3nnc(C(F)(F)c4ccc5ncccc5c4)n3n2)cc1
2 | 9.5 nM | 5.5 nM | 8.6 nM | Cn1cc(-c2ccc3nnc(C(F)(F)c4ccc5ncccc5c4)n3n2)cn1 [US9062045, Comparator No. 1 (JNJ-38877605)]
